Square brackets hold non-standard residues; d marks the D form. Ends that are not written are not given here. Vat = not defined here
What was measured:
[1] = test system: P815 murine mastocytoma cells; assay: Chromium release assay: CTL from peptide-immunized BALB/c mice against peptide-contacted P815 cells; type: cell-based, mouse; conditions: for CTL response cytotoxic to target cells displaying the peptide (specific lysis): BALB/c mice immunized with 30 micrograms peptide + OVAp in DOTAP liposomes, targets contacted with same peptide and interferon-gamma
Protocol: The test peptides p 1 and p2 were evaluated for the ability to elicit in mice a cytotoxic T-lymphocyte response to naturally presented immunoglobulin E peptides. Eight-week old BALB/c mice in groups of four were each immunized with 30 micrograms of one of the test peptides p1 or p2, together with 30 micrograms of the co-stimulatory factor OVAp (ovalbumin peptide) (Schimokevitz, 1984, J. Immunol., 133:2067), an oligopeptide consisting of the sequence […](SEQ ID NO. 3), in N-[1-(-2,3-dioleoyloxy)propyl]-N,N,N-trimethylammonium methylsulfate (DOTAP, purchased from Boehringer Mannheim, Indianapolis, Ind.) cationic liposomes. Two weeks after the first immunization, mice in each respective group were immunized a second time with the appropriate test peptide (p1 or p2) that had been used in the initial immunization. Two weeks after the second immunization, 5×10^6 spleen cells were removed from a pool of two to four mice, established in vitro, and re-stimulated with the respective test peptide in vitro for seven days. The cytotoxic T-lymphocytes thus obtained were tested using a standard chromium release assay (Colligan et al. 2002, Current Protocols in Immunology, 3.11) for their ability as effector cells to lyse target cells. The target cells consisted of P815 murine mastocytoma cells that had been contacted with the appropriate test peptide (p1 or p2) and treated overnight with 50 units per milliliter interferon-gamma to facilitate processing of the test peptide. Effector cells (E) and target cells (T) were mixed at different E/T ratios for 4 hours. The specific lysis was determined by the following formula: [(experimental release−spontaneous release)/(maximal release−spontaneous release)]×100.
The test peptide p3 was similarly evaluated for the ability to elicit a cytotoxic T-lymphocyte response in mice to naturally processed and presented immunoglobulin E peptides. […] The specific lysis was determined by the following formula: [(experimental release−spontaneous release)/(maximal release−spontaneous release)]×100.

HLA-A2.1 = HLA-A2.1 cell surface expression in RMA-S-A2.1 cells (FACS); type: cell-based, human; conditions: for Increase of HLA-A2.1-specific fluorescence intensity: RMA-S-A2.1 cells, 50 micromoles per liter peptide, 37 C overnight, FITC anti-HLA-A2.1
Protocol: Cells were pooled from the duplicate cultures and about 1×10^6 cells were incubated with 2 micrograms per milliliter fluorescein isothiocyanate-labelled anti-HLA-A2.1 antibody (catalogue number 32294x, PharMingen) at 4° C. for 30 min. Fluorescence-activated cell sorting (FACS) analysis was performed on a FACScan (Becton-Dickinson). About ten thousand events were collected and analyzed by CELLQuest software (version 1.2.2, BD Biosciences).

[2] = test system: LPS and IL-4 stimulated B-lymphocyte cultures; assay: Polyclonal IgE production by LPS and IL-4 stimulated B-lymphocyte cultures with CTL (ELISA); type: cell-based, mouse; conditions: CTL from mice immunized with only OVAp in DOTAP liposomes
Protocol: In a second experiment, BALB/c splenic B-lymphocytes were enriched by magnetic beads coated with an antibody against the B-lymphocyte-specific cell surface antigen B220. To assess CTL effects on polyclonal IgE production, 3×10^5 normal B-lymphocytes were added to either 3×10^6 p3-activated spleen cells from mice immunized with test peptide p3 together with the co-stimulatory factor OVAp in DOTAP liposomes, or to 3×10^6 p3-activated spleen cells from mice immunized with only the co-stimulatory factor OVAp in DOTAP liposomes as a control. The co-cultures were then stimulated with 20 micrograms per milliliter lipopolysaccharide (LPS) and 250 units per milliliter murine recombinant interleukin-4 (IL-4). Two days later, the culture supernatants were harvested. Immunoglobulin E levels were determined using a commercial double-sandwich ELISA assay (catalogue number 2655KI, PharMingen).

KLH-specific IgE = assay: Allergen-specific (KLH-specific) IgE in vivo by passive cutaneous anaphylaxis (PCA); design: species or system mouse; conditions: BALB/c mice immunized with only OVAp in liposomes, KLH/alum challenge; pooled blood
Protocol: In a third experiment, the effect of immunoglobulin E peptide immunization on production of allergen-specific IgE in vivo was determined. Adult BALB/c mice (5/group) were immunized twice with either the test peptide p3 or the test peptide p1, together with the co-stimulatory factor OVAp in DOTAP liposomes, or with only the co-stimulatory factor OVAp in DOTAP liposomes. Mice immunized with saline served as control. Seven days after the second immunization, mice were challenged with 1 microgram keyhole limpet hemocyanin (KLH) in 2 milligrams alum intraperitoneally four times at a 10 day interval, and the allergen-specific (KLH-specific) IgE in pooled blood was then determined by passive cutaneous anaphylaxis (PCA) reaction. […] Reduction of allergen-specific PCA correlated directly with the elicitation of IgE peptide-specific cytotoxic T-lymphocytes in vitro (as depicted in FIG. 3B).

[3] = test system: murine EL-4 lymphoma cells; assay: Chromium release assay: CTL from immunized C57BL/6 mice against p4-contacted EL-4 cells; type: cell-based, mouse; conditions: C57BL/6 mice immunized with p4 with OVAp; p4-contacted EL-4 targets
Text: Groups consisting each of five C57BL/6 mice were immunized with either 30 micrograms of the test peptide p4 with 30 micrograms of the co-stimulatory factor OVAp, or with 30 micrograms of the test peptide p5 delivered in 30 micrograms DOTAP liposomes. Two weeks after the first immunization, mice in each respective group were immunized a second time with the appropriate test peptide formulation (p4 plus OVAp, or p5 in DOTAP liposomes) that had been used in the initial immunization. Two weeks after the second immunization, 5×10^6 spleen cells were removed from a pool of two to four mice, established in vitro, and re-stimulated with the appropriate test peptide (p4 or p5) in vitro for seven days. The cytotoxic T-lymphocytes thus obtained were tested using a standard chromium release assay for their ability as effector cells to lyse target cells. The target cells consisted of murine EL-4 lymphoma cells, which display the major histocompatibility complex class I molecules H-2K^b and H-2D^b, and that had been contacted with the test peptide p4 and treated overnight with 50 units per milliliter interferon-gamma. Effector cells (E) and target cells (T) were mixed at different E/T ratios for 4 hours. The specific lysis was determined by the following formula: [(experimental release−spontaneous release)/(maximal release−spontaneous release)]×100.

IYGHILNDV [p2, lie Tyr Gly His li0e Leu Asn Asp Val]
CTL response cytotoxic to target cells displaying the peptide (specific lysis) [1]: able to elicit a CTL response

LLTVSGAWA [539.8]
effect of exogenous human beta-2 microglobulin on surface expression of HLA-A2.1 (HLA-A2.1; RMA-S-A2.1 cells incubated with peptide in presence versus absence of human beta-2 microglobulin): did not substantially enhance surface expression of HLA-A2.1
Increase of HLA-A2.1-specific fluorescence intensity (HLA-A2.1): one log

ISQAVHAAHAEINEAGR [OVAp, co-stimulatory factor]
CTL response against p3-treated P815 target cells ([1]; BALB/c mice immunized with OVAp in liposomes only): did not induce a substantial CTL-response
immunoglobulin E production in vitro [2]: did not decrease immunoglobulin E production
KLH-specific IgE PCA titre (KLH-specific IgE): 160

QLPDARHST [539.9]
Increase of HLA-A2.1-specific fluorescence intensity (HLA-A2.1): one log

Trp Val Asp Asn Lys Thr Phe Ser Vat (WVDNKTFS[Vat]; reading uncertain; also: printed as Trp Val Asp Asn Lys Thr Phe Ser Vat) [539.12]
Increase of HLA-A2.1-specific fluorescence intensity (HLA-A2.1): one log

LYCFIYGHI [p1]
CTL response cytotoxic to target cells displaying the peptide (specific lysis) [1]: able to elicit a CTL response

WLSDRTYTC [539.11]
Increase of HLA-A2.1-specific fluorescence intensity (HLA-A2.1): one log

Ile Gln Leu Tyr Cys Phe Ile Try Gly His Ile Leu Asn Asp Val Ser Val (IQLYCFIYGHILNDVSV; Mouse (Mus musculus)) [p4]
immunoglobulin E-specific CTL response [3]: comparable levels of immunoglobulin E-specific CTL response

TQSPSVFPL [539.10]
Increase of HLA-A2.1-specific fluorescence intensity (HLA-A2.1): one log

— US7604955B2, “Immunoglobulin E vaccines and methods of use thereof” (priority 2001, dated 2009)
